Data from US6210917A, “Method for suppressing multiple drug resistance in cancer cells” (priority 1997, dated 2001).

How the values were obtained:
[1] = system: MTAse competent A427 cells; test: growth restoration by MTAse substrates after L-alanosine (FIG. 3); type: cell-based
[2] = system: MTAse competent MOLT-4 cells; test: as above; type: cell-based
[3] = system: MTAse deficient A549 cells; test: as above; type: cell-based
[4] = system: MTAse deficient CEM cells; test: as above; type: cell-based
MV522Q6 cells = test: growth of MDR cells by reduction of a tetrazolium dye (FIG. 1A); type: cell-based, human; conditions: 10 μM; for sensitivity of the resistant cell line to chemotherapy: MV522Q6 compared with MV522, three days
Method: MV522 is a human cancer cell line; MV522Q6 is a variant of the cell line with MDR. Each cell line was grown in a monolayer as and contacted with 10 μM of a chemotherapeutic agent and/or L-alanosine (as shown in FIGS. 1A and 1B). Growth, or the lack thereof, was measured in each population of cells by reduction of a tetrazolium dye after three days in culture.
FIG. 1A is a graph depicting the effect of L-alanosine and different chemotherapeutic agents (vinblastine and taxol) on a MDR cancer cell line (MV522Q6). FIG. 1B is a graph depicting the effect of the same drugs on the cell line before acquisition of resistance (MV522). […] However, the adenine synthesis inhibitor L-alanosine is nearly 10 times as potent in the resistant cell line than the other agents tested.

MES-SA/Dx5 cells [5] = test: growth of MES-SA/Dx5 drug resistant cells with L-alanosine and other agents; type: cell-based; conditions: data not shown
[6] = system: MTAse deficient H292 cells; test: proliferation in presence of L-alanosine with MTA or adenine added (FIG. 2); type: cell-based; conditions: L-alanosine 40 μM
A549 NSCLC cells = test: tumor xenograft in nude mice, MTAP-deficient A549 cells (FIG. 5); type: in vivo, Balb/c athymic nude mice; conditions: i.p. every 12 hours; 15 mg/kg per injection 7 days then 22.5 mg/kg 5 days
Method: (§1) 10^7 A549 or A427 NSCLC cells were injected subcutaneously into 6-week old Balb/c athymic nude mice. When tumors had reached approximately 0.4 cm diameter, treatment was begun with L-alanosine or saline by intraperitoneal injection every 12 hours. Mice received 15 mg/kg per injection for 7 days then 22.5 mg/kg for 5 days. Tumor size was measured as the product of perpendicular diameters. The results for treated (n=6 [sample size] for each cell type) vs. control (n=4 [sample size] for each cell type) mice are shown in FIG. 5.

A427 NSCLC cells = test: tumor xenograft in nude mice, MTAP-positive A427 cells (FIG. 5); type: in vivo, Balb/c athymic nude mice; conditions: i.p. every 12 hours; 15 mg/kg per injection 7 days then 22.5 mg/kg 5 days
Method: as §1

[7] = toxicity / body weight of nude mice in xenograft study; type: in vivo, Balb/c athymic nude mice
Method: 10^7 A549 or A427 NSCLC cells were injected subcutaneously into 6-week old Balb/c athymic nude mice. When tumors had reached approximately 0.4 cm diameter, treatment was begun with L-alanosine or saline by intraperitoneal injection every 12 hours.
Mice received 15 mg/kg per injection for 7 days then 22.5 mg/kg for 5 days. Tumor size was measured as the product of perpendicular diameters. The results for treated (n=6 [sample size] for each cell type) vs. control (n=4 [sample size] for each cell type) mice are shown in FIG. 5.

human cancers = conditions: cited from earlier work
melanoma = conditions: Phase II, melanoma patients; cited from earlier work
breast cancer = breast cancer patients; cited from earlier work
MTAse competent cancers = conditions: cited from earlier work
[8] = humans, intravenous, cited from earlier work
[9] = cited from earlier work
MES-SA/Dx5 cells [10] = conditions: cited from earlier work

## C[C@H]1O[C@@H](n2cnc3c(N)ncnc32)[C@H](O)[C@@H]1O [5'-deoxyadenosine]
[1]
  growth restoration: growth restoration
[2]
  growth restoration: growth restoration
[3]
  growth restoration: remained growth inhibited
[4]
  growth restoration: remained growth inhibited

## N[C@@H](CN(O)N=O)C(=O)O [L-alanosine]
MV522Q6 cells; MV522Q6 (MDR), three days in culture
  potency of L-alanosine in the resistant cell line relative to the other agents tested: ~10 times
MV522Q6 cells; MV522Q6 vs MV522
  potency in the resistant cell line vs the non-resistant cell line: as, if not more, potent in the resistant cell line than in the non-resistant cell line
MES-SA/Dx5 cells [5]
  effect on drug resistant cell line vs other agents tested: significantly more affected by L-alanosine than by the other agents tested
[6]; H292 compared with Calu-6, with MTA
  inability to proliferate in the presence of L-alanosine despite MTA: selective inability of MTAse deficient NSCLC cells to proliferate
A549 NSCLC cells
  size of well-established MTAP-deficient tumors: decrease in the size
A427 NSCLC cells
  effect on growth of MTAP-positive cells: no effect on the growth
[7]; 15 and 22.5 mg/kg per injection, i.p. every 12 hours
  toxicity: No toxicity was evident
[7]; throughout testing
  body weight: stable weights
Human cancers; Phase II studies, Creagan et al.
  overall response rate: 4%
Human cancers; Tyagi and Cooney 1984
  efficacy for treatment of human cancers: little encouragement
melanoma
  therapeutic response: little therapeutic response observed
Breast cancer
  objective responses: no objective responses observed
MTAse competent cancers
  success in clinical trials: no appreciable success
[8]
  plasma clearance: biphasic
[8]; plasma, biphasic, approximate
  t1/2α: ~14 min
  t1/2β: ~99 min
[9]; continuous infusion about 125 mg/m^2 for 5 days, adults, acute non-lymphoblastic leukemia, phase II
  dose limiting toxicity: mucositis
[9]; multiple bolus dosing
  toxicity after multiple bolus dosing: Stomatitis and esophagitis
[9]; prior clinical trials
  dose-limiting toxicity: renal toxicity, stomatitis, esophagitis
  reactions with lesser frequency: myelosuppression, headache, nausea and hypo- or hypertension
[9]; single bolus dosing
  dose at which renal toxicity occurred: above 4 g/m^2 body weight
[9]; two pediatric patients, separate doses
  dose at which two pediatric patients suffered liver failure: about 350 mg/m^2 body weight per day

## Nc1ncnc2nc[nH]c12 [adenine]
[6]; control cultures with adenine (Calu-6 / H292)
  proliferation of control cultures containing adenine: proliferate despite L-alanosine

## CC(=O)O[C@H]1C(=O)[C@@]2(C)[C@H]([C@H](OC(=O)c3ccccc3)[C@]3(O)C[C@H](OC(=O)[C@H](O)[C@@H](NC(=O)c4ccccc4)c4ccccc4)C(C)=C1C3(C)C)[C@]1(OC(C)=O)CO[C@@H]1C[C@@H]2O [taxol]
MV522Q6 cells
  sensitivity of the resistant cell line to chemotherapy: greatly reduced
MES-SA/Dx5 cells [10]
  resistance level to chemotherapeutic agents: highly resistant

## CC[C@]1(O)C[C@@H]2CN(CCc3c([nH]c4ccccc34)[C@@](C(=O)OC)(c3cc4c(cc3OC)N(C)[C@H]3[C@@](O)(C(=O)OC)[C@H](OC(C)=O)[C@]5(CC)C=CCN6CC[C@]43[C@@H]65)C2)C1 [vinblastine]
MV522Q6 cells
  sensitivity of the resistant cell line to chemotherapy: greatly reduced
MES-SA/Dx5 cells [10]
  resistance level to chemotherapeutic agents: highly resistant
